Source: patent US20230041996A1, “CALCIUM-SENSING RECEPTOR AGONIST COMPOUND AND APPLICATION THEREOF” (BEIJING TUO JIE BIOPHARMACEUTICAL CO. LTD., priority 2019, published 2023)
Square brackets hold non-standard residues; d marks the D form. Peptide text beside a SMILES is read from it. * marks the point of attachment. Cys(free,S-linked) = N[C@@H](CS*)C(=O)O; dPhe(2-Cl) = N[C@H](Cc1ccccc1Cl)C(=O)O; d(hPhe) = N[C@H](CCc1ccccc1)C(=O)O; d(hLeu) = CC(C)CC[C@@H](N)C(=O)O; dCha = N[C@H](CC1CCCCC1)C(=O)O; dChg = N[C@@H](C(=O)O)C1CCCCC1; dPhg = N[C@@H](C(=O)O)c1ccccc1; dTle = CC(C)(C)[C@@H](N)C(=O)O; dAbu = CC[C@@H](N)C(=O)O

Assays:
[1] = biological target: T1, human calcium-sensing receptor (CaSR) (Homo sapiens, UniProt P41180); assay: Agonist activity on human calcium-sensing receptor (IP-One HTRF in stably transfected HEK293/CaSR cells); format: cell-based; conditions: HEK293/CaSR cells, IP-One production, 60 min at 37° C., CaCl2 1.2 mM; read-out: EC50 for calcium-sensing receptor
T1 construct: host or cells: HEK293
T1 sequence (P41180 20-1078): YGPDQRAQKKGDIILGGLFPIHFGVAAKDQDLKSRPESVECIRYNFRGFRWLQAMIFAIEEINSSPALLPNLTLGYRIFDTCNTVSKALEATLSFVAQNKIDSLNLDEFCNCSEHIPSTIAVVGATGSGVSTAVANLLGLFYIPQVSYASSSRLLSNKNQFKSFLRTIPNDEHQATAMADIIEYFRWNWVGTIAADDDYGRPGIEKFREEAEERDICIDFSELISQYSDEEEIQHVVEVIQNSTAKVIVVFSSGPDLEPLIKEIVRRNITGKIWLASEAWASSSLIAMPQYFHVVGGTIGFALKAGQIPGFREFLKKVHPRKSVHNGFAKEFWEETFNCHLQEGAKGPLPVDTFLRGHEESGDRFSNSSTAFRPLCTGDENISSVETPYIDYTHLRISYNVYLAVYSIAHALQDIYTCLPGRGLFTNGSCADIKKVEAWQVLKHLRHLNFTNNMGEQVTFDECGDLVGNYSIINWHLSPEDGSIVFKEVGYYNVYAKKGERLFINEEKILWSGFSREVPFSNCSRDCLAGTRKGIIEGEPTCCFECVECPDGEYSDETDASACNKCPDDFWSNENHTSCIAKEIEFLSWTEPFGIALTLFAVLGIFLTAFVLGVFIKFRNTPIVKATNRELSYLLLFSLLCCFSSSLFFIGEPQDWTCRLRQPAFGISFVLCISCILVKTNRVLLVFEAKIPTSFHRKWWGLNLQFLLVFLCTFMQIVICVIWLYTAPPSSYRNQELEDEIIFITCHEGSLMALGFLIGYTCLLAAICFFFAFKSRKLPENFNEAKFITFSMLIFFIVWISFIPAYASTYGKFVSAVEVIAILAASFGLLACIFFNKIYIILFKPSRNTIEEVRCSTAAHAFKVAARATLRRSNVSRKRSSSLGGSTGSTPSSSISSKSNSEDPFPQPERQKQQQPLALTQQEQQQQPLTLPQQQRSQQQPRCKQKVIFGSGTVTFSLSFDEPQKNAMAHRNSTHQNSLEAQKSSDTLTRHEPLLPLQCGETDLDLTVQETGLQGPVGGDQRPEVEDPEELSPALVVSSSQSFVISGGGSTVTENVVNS
Experimental: 3.1.1 Objective: The test example is intended to measure the agonist activity of compounds 1-38 on the human calcium-sensing receptor (CaSR).
Stably transfected HEK293/CaSR cells (source: Pharmaron) were cultured in a complete medium (composition: DMEM, high glucose+10% FBS+2 mM GlutaMAX+1× Penicillin-Streptomycin+200 μg/mL Hygromycin B) and incubated at 37° C./5% CO2 till 70%-90% cell confluence. The cells were digested with TrypLE, inoculated into 384-well cell culture plates, and cultured overnight at 37° C./5% CO2. After buffer exchange, stimulation buffer (HEPES 10 mM, MgCl2 0.5 mM, KCl 4.2 mM, NaCl 146 mM, glucose 5.5 mM, LiCl 50 mM, CaCl2 1.2 mM) and various concentrations of the test example compounds were added and incubated at 37° C. for 60 min. Production of IP-One in cells was detected according to the procedures in the Cisbio IP-One Tb kit instructions. The EC50 values of various test example compounds in influencing human calcium-sensing receptor was calculated by software after the raw data of the example compounds were collected, so as to evaluate the agonist activity of the example compounds on human calcium-sensing receptor.
HTRF signal was read by an EnVision detector with an excitation wavelength of 320 nm and emission wavelengths of 620 nm and 665 nm. The signal ratio (665 nm/620 nm×10,000) was calculated and fitted non-linearly to the sample concentration in GraphPad Prism 6 using a four-parameter equation to give EC50 values of the test example compounds 1-38.

[2] = tested on: rat peritoneal mast cells; assay: In vitro histamine release in rat peritoneal mast cells (histamine ELISA); format: cell-based; conditions: for Relative fold of histamine release in vitro: test compound final concentration 10 μM, 15 min at 37° C., relative to PBS buffer (1.00)
Experimental: To evaluate the in vitro histamine release levels induced by some of the test example compounds, rat peritoneal mast cells were collected by lavaging rat peritoneum with a lavage buffer (cold HBSS+25 mM HEPES containing heparin 5 U/mL, pH 7.4). After collection, the cells were centrifuged, and the lavage buffer was discarded. The cells were resuspended and washed twice with a stimulation buffer (HBSS+25 mM HEPES+1 mM CaCl2), pH 7.4). The cells were plated at a density of 10^5 cell/well (200 μL/well) and incubated at 37° C. for 15 min with positive control compound 48/80 (final concentration: 4 μg/mL), test example compounds (final concentration: 10 μM) or vehicle control. The cells were centrifuged, and cell supernatant was collected and tested for histamine concentration according to LDN Histamine ELISA kit (BAE-1000) instructions.

SMILES | EC50 [1] [µM] | Relative fold of histamine release in vitro [2] | histamine release levels in rat peritoneal mast cells in vitro relative to etelcalcetide ([2]; 10 μM, comparison with etelcalcetide)
CC(=O)N[C@H](CSSC[C@H](N)C(=O)O)C(=O)N[C@H](Cc1c[nH]c2ccccc12)C(=O)N[C@H](CCCNC(=N)N)C(=O)N[C@H](CCCNC(=N)N)C(=O)N[C@H](CCCNC(=N)N)C(=O)N[C@H](C)C(=O)N[C@H](CCCNC(=N)N)C(N)=O [Compound 5, Ac-c(C)-(D-Trp)-r-r-r-a-r-NH2] (Ac-[dC](Cys(free,S-linked))[dW][dR][dR][dR][dA][dR]-NH2) | 1.14 | 4.13 | –
CC(=O)N[C@H](CSSC[C@H](N)C(=O)O)C(=O)N[C@H](CCCNC(=N)N)C(=O)N[C@H](CCCNC(=N)N)C(=O)N[C@@H](C(=O)N[C@H](CCCNC(=N)N)C(=O)NCC(=O)N[C@H](CCCNC(=N)N)C(N)=O)C(C)C [Compound 30, Ac-c(C)-r-r-v-r-G-r-NH2] (Ac-[dC](Cys(free,S-linked))[dR][dR][dV][dR]G[dR]-NH2) | 19.6 | 1.51 | –
CC(=O)N[C@H](CSSC[C@H](N)C(=O)O)C(=O)N[C@H](CCCNC(=N)N)C(=O)N[C@H](CCCNC(=N)N)C(=O)N[C@H](CC1CCCCC1)C(=O)N[C@H](CCCNC(=N)N)C(=O)N[C@H](C)C(=O)N[C@H](CCCNC(=N)N)C(N)=O [Compound 21, Ac-c(C)-r-r-(D-Cha)-r-a-r-NH2] (Ac-[dC](Cys(free,S-linked))[dR][dR][dCha][dR][dA][dR]-NH2) | 5.59 | 3.42 | –
CC(=O)N[C@H](CSSC[C@H](N)C(=O)O)C(=O)N[C@H](Cc1ccccc1Cl)C(=O)N[C@H](CCCNC(=N)N)C(=O)N[C@H](CCCNC(=N)N)C(=O)N[C@H](CCCNC(=N)N)C(=O)N[C@H](C)C(=O)N[C@H](CCCNC(=N)N)C(N)=O [Compound 2, Ac-c(C)-[D-Phe(2-Cl)]-r-r-r-a-r-NH2] (Ac-[dC](Cys(free,S-linked))[dPhe(2-Cl)][dR][dR][dR][dA][dR]-NH2) | 6.76 | 4.96 | –
CC(=O)N[C@H](CSSC[C@H](N)C(=O)O)C(=O)N[C@H](CCCNC(=N)N)C(=O)N[C@H](CCCNC(=N)N)C(=O)N[C@@H](C(=O)N[C@H](CCCNC(=N)N)C(=O)N[C@H](C)C(=O)N[C@H](CCCNC(=N)N)C(N)=O)C(C)(C)C [Compound 18, Ac-c(C)-r-r-(D-Tle)-r-a-r-NH2] (Ac-[dC](Cys(free,S-linked))[dR][dR][dTle][dR][dA][dR]-NH2) | 13.4 | 1.24 | –
CC(=O)N[C@H](CSSC[C@H](N)C(=O)O)C(=O)N[C@H](CCCNC(=N)N)C(=O)N[C@H](CCCNC(=N)N)C(=O)N[C@H](Cc1ccc(O)cc1)C(=O)N[C@H](CCCNC(=N)N)C(=O)N[C@H](C)C(=O)N[C@H](CCCNC(=N)N)C(N)=O [Compound 24, Ac-c(C)-r-r-y-r-a-r-NH2] (Ac-[dC](Cys(free,S-linked))[dR][dR][dY][dR][dA][dR]-NH2) | 2.03 | 3.18 | –
CC(=O)N[C@H](CSSC[C@H](N)C(=O)O)C(=O)N[C@H](CO)C(=O)N[C@H](CCCNC(=N)N)C(=O)N[C@H](CCCNC(=N)N)C(=O)N[C@H](CCCNC(=N)N)C(=O)NCC(=O)N[C@H](CCCNC(=N)N)C(N)=O [Compound 8, Ac-c(C)-s-r-r-r-G-r-NH2] (Ac-[dC](Cys(free,S-linked))[dS][dR][dR][dR]G[dR]-NH2) | 14.3 | 1.50 | –
CC(=O)N[C@H](CSSC[C@H](N)C(=O)O)C(=O)N[C@H](CCCNC(=N)N)C(=O)N[C@H](CCCNC(=N)N)C(=O)N[C@@H](C(=O)N[C@H](CCCNC(=N)N)C(=O)N[C@H](C)C(=O)N[C@H](CCCNC(=N)N)C(N)=O)c1ccccc1 [Compound 11, Ac-c(C)-r-r-(D-Phg)-r-a-r-NH2] (Ac-[dC](Cys(free,S-linked))[dR][dR][dPhg][dR][dA][dR]-NH2) | 15.7 | 1.11 | –
CC(=O)N[C@H](CSSC[C@H](N)C(=O)O)C(=O)N[C@H](CCCNC(=N)N)C(=O)N[C@H](CCCNC(=N)N)C(=O)N[C@H](CCC(C)C)C(=O)N[C@H](CCCNC(=N)N)C(=O)NCC(=O)N[C@H](CCCNC(=N)N)C(N)=O [Compound 34, Ac-c(C)-r-r-(D-hLeu)-r-G-r-NH2] (Ac-[dC](Cys(free,S-linked))[dR][dR][d(hLeu)][dR]G[dR]-NH2) | 12.2 | 2.28 | –
CC(=O)N[C@H](CSSC[C@H](N)C(=O)O)C(=O)N[C@H](CCCNC(=N)N)C(=O)N[C@H](CCCNC(=N)N)C(=O)N[C@@H](C(=O)N[C@H](CCCNC(=N)N)C(=O)N[C@H](CO)C(=O)N[C@H](CCCNC(=N)N)C(N)=O)C(C)(C)C [Compound 37, Ac-c(C)-r-r-(D-Tle)-r-s-r-NH2] (Ac-[dC](Cys(free,S-linked))[dR][dR][dTle][dR][dS][dR]-NH2) | 15.4 | 2.23 | –
CC(=O)N[C@H](CSSC[C@H](N)C(=O)O)C(=O)N[C@H](CCCNC(=N)N)C(=O)N[C@H](CCCNC(=N)N)C(=O)N[C@@H](C(=O)N[C@H](CCCNC(=N)N)C(=O)N[C@H](C)C(=O)N[C@H](CCCNC(=N)N)C(N)=O)C1CCCCC1 [Compound 20, Ac-c(C)-r-r-(D-Chg)-r-a-r-NH2] (Ac-[dC](Cys(free,S-linked))[dR][dR][dChg][dR][dA][dR]-NH2) | 7.53 | 2.33 | –
CC[C@@H](NC(=O)[C@@H](CCCNC(=N)N)NC(=O)[C@@H](CCCNC(=N)N)NC(=O)[C@@H](CSSC[C@H](N)C(=O)O)NC(C)=O)C(=O)N[C@H](CCCNC(=N)N)C(=O)NCC(=O)N[C@H](CCCNC(=N)N)C(N)=O [Compound 32, Ac-c(C)-r-r-(D-Abu)-r-G-r-NH2] (Ac-[dC](Cys(free,S-linked))[dR][dR][dAbu][dR]G[dR]-NH2) | 13.1 | 1.41 | reduction in histamine release levels
CC(=O)N[C@H](CSSC[C@H](N)C(=O)O)C(=O)N[C@H](CCCNC(=N)N)C(=O)N[C@H](CCCNC(=N)N)C(=O)N[C@H](CCc1ccccc1)C(=O)N[C@H](CCCNC(=N)N)C(=O)N[C@H](C)C(=O)N[C@H](CCCNC(=N)N)C(N)=O [Compound 16, Ac-c(C)-r-r-(D-hPhe)-r-a-r-NH2] (Ac-[dC](Cys(free,S-linked))[dR][dR][d(hPhe)][dR][dA][dR]-NH2) | 2.37 | 2.94 | –
